Measured values reported in US5892099A, “3,7-dithiaprostanoic acid derivative” (Ono Pharmaceutical Co., Ltd., priority 1997, dated 1999).
pKi: −log10 of the molar value.

Experiments:
mouse EP4 = biological target: T1, mouse EP4 (Mus musculus, UniProt P32240); assay: Binding assay using expression cell of the prostanoid receptor subtype (EP4), competition of specific 3H-PGE2 binding; conditions: membrane fraction of EP4 expressing CHO cells; 2.5 nM 3H-PGE2; pH 6.0; 1 hour at room temperature; read-out: Dissociation constant for EP4 Ki
T1 construct: expressed in transfected cells; host or cells: CHO cells
T1 sequence (P32240 whole entry): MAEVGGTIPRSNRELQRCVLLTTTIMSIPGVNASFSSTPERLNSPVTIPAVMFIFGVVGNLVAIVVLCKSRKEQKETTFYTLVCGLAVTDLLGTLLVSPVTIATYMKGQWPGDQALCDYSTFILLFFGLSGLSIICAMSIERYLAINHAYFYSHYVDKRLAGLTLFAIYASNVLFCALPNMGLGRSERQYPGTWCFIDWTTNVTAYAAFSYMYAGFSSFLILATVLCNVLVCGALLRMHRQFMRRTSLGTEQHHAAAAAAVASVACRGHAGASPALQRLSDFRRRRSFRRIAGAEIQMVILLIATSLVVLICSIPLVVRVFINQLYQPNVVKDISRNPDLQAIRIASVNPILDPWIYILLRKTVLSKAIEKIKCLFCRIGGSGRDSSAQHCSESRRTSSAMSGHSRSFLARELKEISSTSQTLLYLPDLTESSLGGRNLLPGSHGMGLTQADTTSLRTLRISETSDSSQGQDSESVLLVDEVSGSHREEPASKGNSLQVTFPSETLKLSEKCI
Description: (§1) (I) Binding assay using expression cell of the prostanoid receptor subtype
(§2) The preparation of membrane fraction was carried out according to the method of Sugimoto et al (J. Biol. Chem. 267, 6463-6466 (1992)) using the prostanoid receptor subtypes (mouse EP3α, EP4) expressing CHO cells.
(§3) The standard assay mixture containing membrane fraction (0.5 mg/ml) and ^3 H-PGE2 in a final volume of 200 μl was incubated for 1 hour at room temperature. The reaction was terminated by the addition of 3 ml of ice-cold buffer. The mixture was rapidly filtered through a GF/B glass filter. The radioactivity associated with the filter was measured by liquid scintillation counting.
(§4) Kd and Bmax value were determined from Scatchard plots (Ann. N. Y. Sci., 51, 660 (1949)). Non-specific binding was calculated as the bound in the presence of an excess (2.5 μM) of unlabeled PGE2.
(§5) In the experiment for competition of specific ^3 H-PGE2 binding by the compounds of the present invention, 2.5 nM of ^3 H-PGE2 and various concentration of the compounds of the present invention were added. The following buffer was used in all reactions. Buffer: 10 mM potassium phosphate (pH 6.0), 1 mM EDTA, 10 mM MgCl2, 0.1M NaCl. The dissociation constant (Ki) of each compound was calculated by the following equation.

mouse EP3α = biological target: T2, mouse EP3α (Mus musculus, UniProt P30557); assay: Binding assay using expression cell of the prostanoid receptor subtype (EP3α), competition of specific 3H-PGE2 binding; conditions: membrane fraction of EP3α expressing CHO cells; 2.5 nM 3H-PGE2; pH 6.0; 1 hour at room temperature; read-out: Dissociation constant for EP3α Ki
T2 construct: expressed in transfected cells; host or cells: CHO cells
T2 sequence (P30557 1-365): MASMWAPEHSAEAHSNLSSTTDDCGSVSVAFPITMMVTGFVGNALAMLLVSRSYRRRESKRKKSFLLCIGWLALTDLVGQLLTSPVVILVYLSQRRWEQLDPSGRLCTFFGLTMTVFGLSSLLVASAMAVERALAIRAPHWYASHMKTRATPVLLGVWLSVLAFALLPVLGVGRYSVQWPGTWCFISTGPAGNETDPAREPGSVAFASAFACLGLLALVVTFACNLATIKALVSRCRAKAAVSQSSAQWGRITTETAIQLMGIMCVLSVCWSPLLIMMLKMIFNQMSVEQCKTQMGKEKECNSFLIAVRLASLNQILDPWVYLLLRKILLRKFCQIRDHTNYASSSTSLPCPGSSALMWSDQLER
Description: as §1, §2, §3, §4, §5

Compound | pKi (mouse EP4) | pKi (mouse EP3α)
CCCCC(C)CC(O)/C=C/C1C(O)CC(=O)C1SCCCSCC(=O)O (stereo not drawn) [Example 2(a), 11α,15α-dihydroxy-9-oxo-17β,20-dimethyl-3,7-dithiaprost-13E-enoic acid] | 9.10 | 8.00
CCCC[C@H](C)C[C@H](O)/C=C/[C@H]1[C@H](O)CC(=O)[C@@H]1SCCCSCC(=O)O [Example 2(b), 11α,15α-dihydroxy-9-oxo-17α,20-dimethyl-3,7-dithiaprost-13E-enoic acid] | 9.22 | 
CCCCC(C)(O)C/C=C/C1C(O)CC(=O)C1SCCCSCC(=O)O (stereo not drawn) [Example 2(c), 11α,16β-dihydroxy-9-oxo-16α-methyl-3,7-dithiaprost-13E-enoic acid] | 8.25 | 
CCCCC[C@H](O)CC[C@@H]1C(SCCCSCC(=O)O)C(=O)C[C@H]1O (stereo partly drawn) [Example 2(d), 11α,15α-dihydroxy-9-oxo-3,7-dithiaprostanoic acid] | 8.80 | 
CC/C=C\CC(O)/C=C/C1C(O)CC(=O)C1SCCCSCC(=O)O (stereo not drawn) [Example 2(e), 11α,15α-dihydroxy-9-oxo-3,7-dithiaprost-13E,17Z-dienoic acid] | 9.04 | 
O=C(O)CSCCCSC1C(=O)CC(O)C1/C=C/C(O)Cc1ccccc1 (stereo not drawn) [Example 2(f), 11α,15α-dihydroxy-9-oxo-16-phenyl-17,18,19,20-tetranor-3,7-dithiaprost-13E-enoic acid] | 8.15 | 6.89
O=C(O)CSCCCSC1C(=O)CC(O)C1/C=C/C(O)CCc1ccccc1 (stereo not drawn) [Example 2(g), 11α,15α-dihydroxy-9-oxo-17-phenyl-18,19,20-trinor-3,7-dithiaprost-13E-enoic acid] | 8.22 | 
O=C(O)CSCCCS[C@H]1C(=O)C[C@@H](O)[C@@H]1/C=C/[C@@H](O)C1CCCCC1 [Example 2(h), 11α,15α-dihydroxy-9-oxo-15-cyclohexyl-3,7-dithia-16,17,18,19,20-pentanorprost-13E-enoic acid] | 7.66 | 6.21
CCCCC[C@](C)(O)/C=C/[C@H]1[C@H](O)CC(=O)[C@@H]1SCCCSCC(=O)O [Example 2(k), 11α,15α-dihydroxy-9-oxo-15β-methyl-3,7-dithiaprost-13E-enoic acid] | 9.15 | 7.47
CCCCC(O)/C=C/C1C(O)CC(=O)C1SCCCSCC(=O)O (stereo not drawn) [Example 2(m), 11α,15α-dihydroxy-9-oxo-3,7-dithia-20-norprost-13E-enoic acid] | 8.85 | 7.64
CCCC[C@H](C)[C@H](O)/C=C/[C@@H]1C(SCCCSCC(=O)O)C(=O)C[C@H]1O (stereo partly drawn) [Example 2(o), 11α,15α-dihydroxy-9-oxo-16β-methyl-3,7-dithiaprost-13E-enoic acid] | 9.70 | 7.60
O=C(O)CSCCCSC1C(=O)CC(O)C1/C=C/C(O)CCCC1CC1 (stereo not drawn) [Example 2(q), 11α,15α-dihydroxy-9-oxo-19,20-methano-3,7-dithiaprost-13E-enoicacid] | 9.40 | 
O=C(O)CSCCCSC1C(=O)CC(O)C1/C=C/C(O)CC1CCCC1 (stereo not drawn) [Example 2(t), 11α,15α-dihydroxy-9-oxo-16-cyclopentyl-3,7-dithia-17,18,19,20-tetranorprost-13E-enoic acid] | 8.38 | 
CCCCCC(O)/C=C/C1C(O)CC(=O)C1SCCCSCC(=O)O (stereo not drawn) [Example 2, 11α,15α-dihydroxy-9-oxo-3,7-dithiaprost-13E-enoic acid] | 9.15 | 5.82
